Results: patent US10738062B2, “Chromane-substituted tetracyclic compounds and uses thereof for the treatment of viral diseases” (Merck Sharp & Dohme Corp., priority 2016, dated 2020)
pEC50: −log10 of the molar value.

Columns and labels:
Set-up in all cases: species or system Hepatitis C virus
[1] = system: HCV replicon 1A; assay: Cell-based HCV replicon assay (Replicon Assay A), replicon 1A; details: replicon RNA by real time PCR, day 3
How it was run: (§1)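 Replicon cells were seeded at 2000/well with compound, 10 serial dilutions starting at 333.3 nM to 1.667 nM, in 0.5% DMSO and 5% FBS, then harvested on day 3. Replicon RNA was measured by multiplex TaqMan RT-PCR with cyclophilin as endogenous control. EC50 is the concentration raising Ct by 1 over projected baseline.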

[2] = system: HCV replicon 1B; assay: Cell-based HCV replicon assay (Replicon Assay B), replicon 1B; details: replicon RNA by real-time PCR, 3 days
Description: In an alternate assay (“Replicon Assay B”), 1000 cells were seeded per well in a 384-well collagen coated black plate from Greiner bio-one (Cat #781946) in 5% FBS. Inhibitors of this invention were added at 24 h post-seeding, and the plates were incubated for 3 days. Cells were subsequently lysed with Qiagen lysis buffer (Cat #1062731) to extract the RNA. HCV replicon RNA level was measured by real-time PCR using the RNA-to-CT kit from Applied Biosystem (Cat #4392656) and genotype-specific primers and probes. The amplicon was located within NS5B. […] (SEQ. ID NO. 2); the probe sequence was FAM-labeled […] (SEQ. ID NO. 3).
The real-time RT-PCR reactions were run on ABI PRISM 7900HT or Viia7 Sequence Detection System using the following program: 48° C. for 30 minutes, 95° C. for 10 minutes, 40 cycles of 95° C. for 15 sec, 60° C. for 1 minutes.
EC50 data for replicons 1A, 1AY93H and 2B were obtained using Replicon Assay A and EC50 data for replicon 1B was obtained using Replicon Assay B.

[3] = system: HCV replicon 2B; assay: Cell-based HCV replicon assay (Replicon Assay A), replicon 2B; details: read-out: EC50 replicon 2B; Replicon Assay A; replicon RNA by real time PCR, day 3
How it was run: as §1

[4] = system: HCV replicon 1A Y93H; assay: Cell-based HCV replicon assay (Replicon Assay A), replicon 1AY93H; details: read-out: EC50 replicon 1A Y93H; Replicon Assay A; replicon RNA by real time PCR, day 3
How it was run: as §1

Row | Structure (SMILES) | pEC50 [1] | pEC50 [2] | pEC50 [3] | pEC50 [4] | pEC50 ([1]; Hepatitis C virus, 72 h) | pEC50 ([2]; Hepatitis C virus, 72 h)
1 | COC(=O)NC(C(=O)N1[C@@H]2C[C@@H]2C[C@H]1c1ncc(-c2ccc3c(c2)cc2n3C(c3ccc4c(c3)OCCC4)Oc3cc(-c4cnc([C@@H]5CCCN5C(=O)[C@@H](NC(=O)OC)C(C)C)[nH]4)cc(F)c3-2)[nH]1)C1CCOC(C)(C)C1 (single isomer, unassigned) [Compound 70] | 11.55 | 11.57 | 10.92 | 11.22 | – | –
2 | COC(=O)NC(C(=O)N1CCC[C@H]1c1ncc(-c2cc(F)c3c(c2)OC(c2ccc4c(c2)OCCC4)n2c-3cc3cc(-c4cnc([C@@H]5CCCN5C(=O)[C@@H](NC(=O)OC)C5CCOCC5)[nH]4)ccc32)[nH]1)C(C)(C)F (single isomer, unassigned) [Compound 89] | 11.68 | 11.51 | 10.82 | 10.77 | – | –
3 | COC(=O)NC(C(=O)N1CCC[C@H]1c1ncc(-c2ccc3c(c2)cc2n3C(c3ccc4c(c3)OCCC4)Oc3cc(-c4cnc([C@@H]5CCCN5C(=O)[C@@H](NC(=O)OC)C(C)C)[nH]4)cc(F)c3-2)[nH]1)C1CCO[C@H](C)C1 (single isomer, unassigned) [Compound 93] | – | – | 9.95 | 9.17 | 11.77 | 11.68
4 | COC(=O)NC(C(=O)N1CCC[C@H]1c1ncc(-c2ccc3c(c2)cc2n3C(c3ccc4c(c3)OC(C)CC4)Oc3cc(-c4cnc([C@@H]5CCCN5C(=O)[C@@H](NC(=O)OC)C(C)C)[nH]4)cc(F)c3-2)[nH]1)C1C[C@@H](C)O[C@@H](C)C1 (single isomer, unassigned) [Compound 59] | 11.49 | – | 10.77 | 10.82 | – | 11.57
5 | COC(=O)NC(C(=O)N1[C@@H]2C[C@@H]2C[C@H]1c1ncc(-c2ccc3c(c2)cc2n3C(c3ccc4c(c3)OCCC4)Oc3cc(-c4cnc([C@@H]5CCCN5C(=O)[C@@H](NC(=O)OC)C(C)C)[nH]4)cc(F)c3-2)[nH]1)C1C[C@@H](C)O[C@@H](C)C1 (single isomer, unassigned) [Compound 68] | 11.74 | – | 10.80 | 11.30 | – | 11.64
